{"source": "patent US20110152207A1", "about": "“USE OF VITAMIN D GLYCOSIDES AND SULFATES FOR TREATMENT OF DISEASE” (priority 2009, published 2011)", "key": {"[1]": {"assay": "Plasma calcium in the DSS mouse model of IBD", "assay_type": "in vivo", "details": "DSS mice", "excerpt": "In this example, β-gluc-1,25-D3 compounds, alone or in combination with 25-β-glucuronide-25-hydroxyvitamin D3 compounds (hereinafter β-gluc-25-D3) were incorporated into the diet of mice and compared to equimolar 1,25-D3 with respect to therapeutic effects on IBD and induction of calcemia. A standard mouse model of IBD comprising administering dextran sodium sulfate (DSS) to induce inflammation of the lower colon was used to study these effects. Vitamin D treatments were first initiated for 4 days. After 4 days, mice were fed DSS-water for 7 days, allowed one day to recover, and sacrificed. Colon length, plasma calcium, fecal blood score, and body weight were assayed. Colon length is a standard marker of intestinal inflammation in the literature, with shortened colon length being an indicator of inflammation. A 1-cm section of the mid-colon was removed, fixed in formalin, and stained with hematoxylin & eosin for microscopic histopathologic evaluation by a veterinary pathologist blinded to the treatments. Each tissue section received a score from 0 to 4 reflecting absence of lesion to severe, extensive lesion for each of three criteria: (1) the degree of erosion/ulceration of colon mucosa; (2) the degree of infiltration of the tissues by inflammatory cells; and (3) the degree of submucosal edema. The sum of the score of each of these criteria constitutes the histopathological score for the tissue with a zero score representing normal tissue based on all criteria, and the worst possible outcome being a score of 12."}, "[2]": {"system": "Cyp24", "assay": "Cyp24 mRNA expression in colon of mice after a single oral dose", "assay_type": "in vivo", "details": "6 hrs; for increase in Cyp24 expression in the colon: relative to untreated mice", "experimental": "Mice were decapitated 6 hrs later following light anesthesia under inhaled halothane. […] Tissue samples were flushed with ice-cold phosphate-buffered saline and immediately homogenized in 1 ml of TRIzol® reagent (Invitrogen Corp., Carlsbad, Calif.). Samples were then kept frozen at −86° C. prior to processing for RNA. For processing RNA, each TRIzol® homogenate was thawed at room temperature and 500 μl placed in a clean microfuge tube, mixed thoroughly with 100 μl chloroform for 15 sec and then centrifuged at 12,000×g for 15 min at 4° C. The upper aqueous phase was removed and mixed with 0.93 volumes of 75% EtOH. The mixture was then applied to an RNeasy spin column (Qiagen Inc., Germantown, Md.) and processed as described by the manufacturer with the exception that an additional wash with 2M NaCl/2 mM EDTA (pH 4.0) was included (Das et al. J Vet Diagn Invest. 2009; 21:771-778). RNA was eluted in 50 μl of water and the concentration obtained by UV spectrometry. One microgram of RNA was then used as a template for production of cDNA in a 20-μl reaction volume using random hexamers and Superscript III as described by the manufacturer (Invitrogen, Carlsbad, Calif.). Afterwards, samples were diluted to 100 μl final volume with TE buffer and stored at −20° C. prior to PCR analysis. Quantitative real-time RT-PCR was performed using a Stratagene Mx3005p cycler (Stratagene, La Jolla, Calif.) and PerfeCTa® SYBR® Green FastMix®, ROX reagent (Quanta Biosciences, Gaithersburg, Md.). Amplification of target cDNAs was accomplished with the following primers: Aliquots (8.3 ng) of cDNA were amplified under the following conditions: 95° C. for 30 sec, followed by 45 cycles of 95° C. for 1 sec and 57° C. for 30 sec. […] Oligonucleotides were obtained from Integrated DNA Technologies (Coralville, Iowa)."}, "[3]": {"system": "LNCaP cells", "assay": "LNCaP cell proliferation (CELLTITER BLUE)", "assay_type": "cell-based, human", "details": "six days, control = 100", "experimental": "LNCaP cells (ATCC # CRL-1740) are malignant prostate cancer cells originally obtained from a lymph node of a person whose prostatic cancer had metastasized to the lymph node. LNCaP cells were grown in tissue culture using RPMI-1640 media with 10% fetal bovine serum. Wells of two 48-well tissue culture plates were seeded with 5000 LNCaP cells/well. […] Half the media was replaced with fresh media with treatments on the third day of the treatment period. By day 6 of treatment, wells of control untreated cells were approximately 60% confluent. The live cell numbers in each well at the end of treatment were assessed using the “CELLTITER BLUE”-brand assay kit (Promega Corp., Madison, Wis.). The assay is based on the ability of living cells to convert a redox dye (resazurin) into a fluorescent end product (resorufin)."}, "[4]": {"system": "DU-145 cells", "assay": "DU-145 cell proliferation (CELLTITER BLUE)", "assay_type": "cell-based, human", "details": "for Proliferation index (Mean ± SEM): 4 days, control = 100", "experimental": "LNCaP cells (ATCC # CRL-1740) are malignant prostate cancer cells originally obtained from a lymph node of a person whose prostatic cancer had metastasized to the lymph node. LNCaP cells were grown in tissue culture using RPMI-1640 media with 10% fetal bovine serum. Wells of two 48-well tissue culture plates were seeded with 5000 LNCaP cells/well. […] Half the media was replaced with fresh media with treatments on the third day of the treatment period. By day 6 of treatment, wells of control untreated cells were approximately 60% confluent. The live cell numbers in each well at the end of treatment were assessed using the “CELLTITER BLUE”-brand assay kit (Promega Corp., Madison, Wis.). The assay is based on the ability of living cells to convert a redox dye (resazurin) into a fluorescent end product (resorufin). […] A similar study was performed using a second human-derived prostatic cancer cell line known as DU-145 (ATCC# HTB-81). […] Exp. Med. Biol. 1995 375:53-63). The DU-145 cells were propagated in Eagle's Minimum Essential Medium with 10% fetal bovine serum. The cells were treated in culture for just 4 days, with half the media replaced with fresh media on day 3 of treatment. Cells were 40% confluent at the end of treatment."}, "[5]": {"system": "β-glucuronidase activity, ileum lumen contents", "assay": "β-glucuronidase cleavage in ileum lumen contents, free 1,25-D3 by RIA", "assay_type": "in vitro ADME, rats", "details": "2100 pg added", "procedure": "The proximal 25 cm of duodenum/jejunum, the caudal 12 cm of ileum, and the cranial 12 cm of colon were removed. The contents from the lumen of each section were flushed with 3 ml water, collected, and pooled. Three-ml aliquots of intestinal contents were placed into tubes. To the tubes, either 2100 pg (3.53 pmoles) β-gluc-1,25-D3 was added and incubated at 37° C. for 0, 1, 3, or 6 hrs, or 150 pg (0.36 pmoles) of 1,25-D3 was added and incubated for 0 or 6 hrs. […] Acetonitrile (3 ml) was added to each tube after incubation to end all enzymatic activity, after which the 1,25-D3 was extracted. Tritiated 1,25-D3 was added to each tube to assess extraction efficiency. The preparations were cleaned by HPLC, and the samples were analyzed for 1,25-D3 content by RIA (Heartland Assays, Ames, Iowa) (Hollis et al., J. Steroid Biochem. Mol. Biol. 2007 103(3-5):473-6)."}, "[6]": {"assay": "Hypercalcemic effect: plasma calcium in rats under continuous subcutaneous infusion", "assay_type": "in vivo", "details": "for Plasma Calcium Mean ± SD: 12th day, in mg/dL (unit assumed); for Significantly greater than control? Duncan's Multiple Range Test: plasma calcium", "experimental": "The pumps were filled aseptically with the appropriate dose of drug dissolved in propylene glycol. The pumps were surgically implanted under the skin on the dorsal neck and shoulder area aseptically. On the 12th day of infusion, rats were deeply anesthetized (isofluorane inhalation) and blood was collected by cardiac puncture for plasma calcium determination. The plasma calcium levels were determined by standard methods."}}, "note": "Marks after values point to notes of the source that are not given here.", "data": [{"molecule": "C=C1/C(=C\\C=C2/CCC[C@]3(C)[C@@H]([C@H](C)CCCC(C)(C)O[C@@H]4O[C@H](C(=O)O)[C@@H](O)[C@H](O)[C@H]4O)CC[C@@H]23)C[C@@H](O)C[C@@H]1O", "note": "[β-gluc-1,25-D3, 25-β-glucuronide-1,25-dihydroxyvitamin D3]", "values": [{"measurement": "Plasma Calcium", "setting": "[1]; 14 ng/day in diet", "value": "10.25 ± 0.33", "unit": "mg/dL"}, {"measurement": "Plasma Calcium", "setting": "[1]; 70 ng/day in diet", "value": "10.12 ± 0.30", "unit": "mg/dL"}, {"measurement": "Plasma Calcium", "setting": "[1]; 350 ng/day in diet", "value": "10.72 ± 0.33^d mg/dl"}, {"measurement": "hypercalcemia", "setting": "[1]; alone at 70 ng/day", "value": "not accompanied by a physiologically significant increase in hypercalcemia"}, {"measurement": "colon Cyp24 response relative to the equimolar dose of 1,25-D3", "setting": "[2]; 12 pmol per os", "value": "about 20 times"}, {"measurement": "increase in Cyp24 expression in the colon", "setting": "[2]; 12 pmol per os", "value": 60, "unit": "fold"}, {"measurement": "increase in Cyp24 in the colon over control mice", "setting": "[2]; 24 pmol per os", "value": "about 700 fold"}, {"measurement": "increase in Cyp24 expression in the colon", "setting": "[2]; 48 pmol per os", "value": "> 400", "unit": "fold"}, {"measurement": "Proliferation index (Mean ± SEM)", "setting": "[3]; 20 nM", "value": "95.4 ± 2.4"}, {"measurement": "Proliferation index (Mean ± SEM)", "setting": "[3]; 100 nM", "value": "73.1 ± 9.5"}, {"measurement": "Proliferation index (Mean ± SEM)", "setting": "[4]; DU-145, 20 nM", "value": "90.3 ± 2.2"}, {"measurement": "Proliferation index (Mean ± SEM)", "setting": "[4]; DU-145, 100 nM", "value": "88.7 ± 2.8"}, {"measurement": "reducing cell proliferation versus native hormone", "setting": "[4]; DU-145 cells", "value": "as active as the native hormone"}, {"measurement": "Measured Free 1,25-dihydroxy vitamin D", "setting": "[5]; 0 hrs incubation", "value": 39, "unit": "pg"}, {"measurement": "Measured Free 1,25-dihydroxy vitamin D", "setting": "[5]; 1 hr incubation", "value": 1323, "unit": "pg"}, {"measurement": "Measured Free 1,25-dihydroxy vitamin D", "setting": "[5]; 3 hrs incubation", "value": 1127, "unit": "pg"}, {"measurement": "Measured Free 1,25-dihydroxy vitamin D", "setting": "[5]; 6 hrs incubation", "value": 1342, "unit": "pg"}, {"measurement": "Plasma Calcium Mean ± SD", "setting": "[6]; 14 ng/day continuous s.c. infusion", "value": "10.63 ± 0.20"}, {"measurement": "increase in plasma calcium", "setting": "[6]; 70 ng/day", "value": "no increase in plasma calcium"}, {"measurement": "Plasma Calcium Mean ± SD", "setting": "[6]; 70 ng/day continuous s.c. infusion", "value": "10.71 ± 0.15"}, {"measurement": "Plasma Calcium Mean ± SD", "setting": "[6]; 250 ng/day continuous s.c. infusion", "value": "11.02 ± 0.49"}, {"measurement": "Plasma Calcium Mean ± SD", "setting": "[6]; 350 ng/day continuous s.c. infusion", "value": "11.00 ± 0.25"}, {"measurement": "symptoms of hypercalcemia (feed intake)", "setting": "[6]; 500 ng/day", "value": "no evidence of a reduction in feed intake or other symptoms"}, {"measurement": "Plasma Calcium Mean ± SD", "setting": "[6]; 500 ng/day continuous s.c. infusion", "value": "11.33 ± 0.38"}, {"measurement": "lowest dose inducing a statistically significant increase in plasma calcium levels", "setting": "[6]; continuous s.c. infusion", "value": 250, "unit": "ng/day"}, {"measurement": "Significantly greater than control? Duncan's Multiple Range Test", "setting": "[6]; 250 ng/day", "value": "Yes"}, {"measurement": "Significantly greater than control? Duncan's Multiple Range Test", "setting": "[6]; 350 ng/day", "value": "Yes"}, {"measurement": "Significantly greater than control? Duncan's Multiple Range Test", "setting": "[6]; 500 ng/day", "value": "Yes"}, {"measurement": "hypercalcemic effect, fold less than the native hormone", "setting": "[6]; versus 1,25-D3", "value": "at least 4 fold"}]}]}
